According to patent US10179775B2, “Cyclooctenes for bioorthogonol reactions” (The General Hospital Corporation, priority 2014, dated 2019):
“Also recorded” adds a separate entry of the source.

Columns and labels:
Assay type in all cases: physicochemical
[1] = Spontaneous isomerization in D2O or D2O:DMSO-d6 without nucleophile by 1H NMR; settings: D2O:DMSO-d6 (10:1 v/v), room temperature, no nucleophile
[2] = Chemical stability in the presence of mercaptoethanol by 1H NMR; set-up: Icis / Itrans: unit not given here; settings: 37° C.; for Icis / Itrans / Itrans/(Icis + Itrans): mercaptoethanol
Experimental: (§1) The chemical stability of the compounds of Examples 1-3 was also investigated in the presence of thiols (cysteine and mercaptoethanol) by NMR in D2O:DMSO-d6 10:1 v/v at 37° C.
(§2) The solutions were prepared by the dilution of a stock solution prepared in DMSO-d6. An end concentration of 20 mM of the cyclooctenes was used except for the s-TCO, which was used in 10 mM end concentration due to poorer solubility. A 20 mM solution could not be prepared by dilution with D2O from DMSO-d6 stock solution without the precipitation of s-TCO. Nucleophiles mercaptoethanol and cysteine were used in 48 mM end concentration. Cysteine precipitated very soon from the solution. In all cases reactions were followed by ^1H NMR.
Measurements were taken in the following intervals: mercaptoethanol: 0 h, 2 h, 11 h, 17 h and 25 h; cysteine: 0 h, 6 h and 14 h; s-TCO without nucleophile at room temperature: 1 h, 7 h and 14 h. […]

[3] = Solubility in DMSO/water (D2O) mixtures; settings: dilution with D2O from DMSO-d6 stock solution (D2O:DMSO-d6 10:1)
Experimental: as §2
The conjugates were tested in imaging experiments (FIG. 1). An advantage of the new trans cyclooctene derivatives lies in their improved solubility in DMSO/water mixtures. Bioorthogonal imaging experiments of PARP protein in HT1080 cells (expressing PARP1 fused to mCherry) were successful with all three new compounds, (FIG. 1). The imaging experiments were performed by treating HT1080 cells (expressing PARP1 fused to mCherry) with 5 μM compound 45 (a-d), 46 (e-h) and 47 (i-l) for 30 minutes. After washing with growth media three times for 5 minutes each, cells were incubated for 30 minutes with 1 μM of CFDA-Tz for bio-orthogonal reaction inside the live cells. Following fixation, 40× images were collected by deconvolution microscopy a, e, i) bright field images; b, f, j) Olaparib-TCO/Tz-CFDA staining; c, g, k) PARP1-mCherry, d, h, l) merged images (see FIG. 1). […]

[4] = Chemical stability in the presence of cysteine by 1H NMR; settings: 37° C.
Experimental: as §1, §2
(§3) Measurements were taken in the following intervals: mercaptoethanol: 0 h, 2 h, 11 h, 17 h and 25 h; cysteine: 0 h, 6 h and 14 h; s-TCO without nucleophile at room temperature: 1 h, 7 h and 14 h.
(§4) In each case the ratio of the integrals of the cis-double bond to the sum of the integrals of the cis- and trans-double bonds was calculate.

[5] = as above; settings: 37° C.; remark: listed apart in the source
[6] = Spontaneous isomerization in D2O or D2O:DMSO-d6 without nucleophile by 1H NMR
Experimental: Bulk samples of the compounds described above in Examples 1-3 were stored at −20° C. for six months. […] The spontaneous isomerization took almost 5 days at 37° C. and more than 12 days at room temperature. […] With 22, a similar degree of isomerization was observed only after 63 hours at room temperature in D2O.
as §3, §4

[7] = D2O:DMSO-d6 (10:1 v/v), room temperature, no nucleophile, t 1 h
[8] = D2O:DMSO-d6 (10:1 v/v), room temperature, no nucleophile, t 7 h
[9] = D2O:DMSO-d6 (10:1 v/v), room temperature, no nucleophile, t 14 h

With `OCC1C2CCC=CCCC12` (centres unmarked) [s-TCO, reference compound] the Icis ([1]; t 0 h) was 0, the Itrans ([1]; t 0 h) was 2 and the “Itrans/(Icis + Itrans)” value ([1]; t 1 h) was 0.985. The “Itrans/(Icis + Itrans)” value ([1]; t 7 h) was 0.971, the “Itrans/(Icis + Itrans)” value ([1]; t 14 h) was 0.952 and the “chemical stability / isomerization, result in words” value ([2]; 48 mM mercaptoethanol, 20 mM cyclooctene (s-TCO 10 mM), D2O:DMSO-d6 10:1 v/v, 0-25 h) was “isomerization of the trans isomer to the cis isomer; also recorded: occurred together with unidentified side reactions; also recorded: undergo isomerization/decomposition; also recorded: most of the s-TCO disappeared within the first two hours”. The Icis ([2]; t 0 h) was 1.19, the Itrans ([2]; t 0 h) was 2 and the “Itrans/(Icis + Itrans)” value ([2]; t 0 h) was 0.627. For the same compound, the Icis ([2]; t 2 h) was 87, the Itrans ([2]; t 2 h) was 2 and the “Itrans/(Icis + Itrans)” value ([2]; t 2 h) was 0.023. For the same compound, the Icis ([2]; t 11 h) was 2, the Itrans ([2]; t 11 h) was 0 and the “Itrans/(Icis + Itrans)” value ([2]; t 11 h) was 0. For the same compound, the Icis ([2]; t 17 h) was 2, the Itrans ([2]; t 17 h) was 0 and the “Itrans/(Icis + Itrans)” value ([2]; t 17 h) was 0. For the same compound, the Icis ([2]; t 25 h) was 2, the Itrans ([2]; t 25 h) was 0 and the “Itrans/(Icis + Itrans)” value ([2]; t 25 h) was 0. The “concentration preparable without precipitation” value [3] was under 20000 µM, the “chemical stability / isomerization, result in words” value ([4]; 48 mM cysteine, 20 mM cyclooctene (s-TCO 10 mM), D2O:DMSO-d6 10:1 v/v, 0-14 h) was “isomerization of the trans isomer to the cis isomer; also recorded: isomerization of the trans-isomer to the cis-isomer; also recorded: undergo isomerization/decomposition” and the “trans-isomer still present after 6 hours” value ([4]; cysteine, 6 hours) was 65%. It also gave an Icis ([4]; cysteine, t 0 h) of 0.19, an Itrans ([4]; cysteine, t 0 h) of 2 and an Icis ([4]; cysteine, t 6 h) of 1.07. For the same compound, the Itrans ([4]; cysteine, t 6 h) was 2, the Icis ([4]; cysteine, t 14 h) was 8.42 and the Itrans ([4]; cysteine, t 14 h) was 2. The “Itrans/(Icis + Itrans)” value ([5]; t 0 h) was 0.913, the “Itrans/(Icis + Itrans)” value ([5]; t 6 h) was 0.652 and the “Itrans/(Icis + Itrans)” value ([5]; t 14 h) was 0.192. The “isomerization after 14 hours” value ([6]; D2O:DMSO-d6 10:1, room temperature, 14 hours) was “at least 5%”, the “Itrans/(Icis + Itrans)” value ([6]; D2O:DMSO-d6 (10:1 v/v), room temperature, no nucleophile, t 0 h) was 1 and the Icis [6, 7] was 0.03. It also gave an Itrans [6, 7] of 2, an Icis [6, 8] of 0.06 and an Itrans [6, 8] of 2. For the same compound, the Icis [6, 9] was 0.1 and the Itrans [6, 9] was 2.
